These results are taken from ChEMBL document CHEMBL1201862, “PubChem BioAssay data set” (2004).

Some test systems named below: COLO 205; CAKI-1; HCC 2998; U-251; PC-3; MDA-MB-435; K562; MOLT-4; NCI-H226; SW-620; HL-60; MDA-N; TK-10; RXF 393; EKVX; 786-0; SK-OV-3; NCI-H23; LOX IMVI; SK-MEL-5.
What all share (assay): inhibition of tumour cell growth, NCI panel, 48 h

Structures are written as SMILES.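 How tested: cells in 96-well plates exposed to compound for 48 hours at five concentrations. The concentration for 50% growth inhibition is given as GI50.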 The source made the active and inactive calls. No stated cut-off is given here; in the data, active = GI50 up to about 1.1 µM and inactive = higher.

As to `CC[C@@]1(OP(=O)(O)O)C(=O)OCc2c1cc1n(c2=O)Cc2cc3ccccc3nc2-1`, the GI50 in the experiment with COLO 205 was 0.847 µM (active); in the experiment with CAKI-1, 0.0467 µM (active); in the experiment with HCC 2998 it was 0.771 µM (active); in the experiment with U-251, 0.0603 µM (active); with PC-3, 0.32 µM (active); in the experiment with MDA-MB-435, 0.339 µM (active). In addition, the GI50 was 0.438 µM (active) in the experiment on K562; 0.014 µM (active) in the experiment with MOLT-4; 0.179 µM (active) in the experiment on NCI-H226; 0.403 µM (active) with SW-620; 0.0306 µM (active) in the experiment with HL-60; 0.537 µM (active) in the experiment on MDA-N. For the same molecule, the GI50 in the experiment on TK-10 is 2.55 µM (inactive); in the experiment with RXF 393, 0.454 µM (active); with EKVX, 1.12 µM (inactive); in the experiment with 786-0 it was 0.0607 µM (active); in the experiment on SK-OV-3 it was 0.342 µM (active); in the experiment on NCI-H23, 0.0608 µM (active). Further, the values for the GI50 in the experiment with LOX IMVI and with SK-MEL-5 were 0.0391 µM (active) and 0.153 µM (active), respectively.

On to `COc1ccc(C(=O)C#Cc2cnc(OC)nc2OC)cc1`, for which the GI50 is 1.57 µM (inactive) in the experiment on COLO 205; 1.19 µM (inactive) in the experiment on CAKI-1; 1.84 µM (inactive) in the experiment with HCC 2998; 1.33 µM (inactive) in the experiment on U-251; 1.26 µM (inactive) in the experiment with PC-3; 2.57 µM (inactive) with MDA-MB-435. The GI50 with K562 is 0.367 µM (active); with MOLT-4 it was 0.0531 µM (active); in the experiment on NCI-H226 it was 1.47 µM (inactive); in the experiment with SW-620 it was 0.571 µM (active); in the experiment with HL-60, 1.63 µM (inactive); in the experiment with MDA-N, 1.58 µM (inactive). Also, the GI50 is 1.67 µM (inactive) with TK-10; 1.87 µM (inactive) in the experiment with RXF 393; 1.83 µM (inactive) with EKVX; 1.94 µM (inactive) with 786-0; 14.1 µM (inactive) in the experiment on SK-OV-3; 1.48 µM (inactive) with NCI-H23. In addition, the GI50 in the experiment on LOX IMVI was 0.147 µM (active); with SK-MEL-5, 1.34 µM (inactive).

On to `O=C1C([P+](c2ccccc2)(c2ccccc2)c2ccccc2)=C([O-])C(=Cc2ccc(Cl)c(Cl)c2)C([O-])=C1[P+](c1ccccc1)(c1ccccc1)c1ccccc1`, for which the GI50 with COLO 205 was 1.73 µM (inactive); in the experiment with CAKI-1, 2.18 µM (inactive); with HCC 2998, 2.93 µM (inactive); in the experiment with U-251 it was 2.47 µM (inactive); in the experiment on PC-3, 1.71 µM (inactive); with MDA-MB-435, 2.3 µM (inactive). Besides, the GI50 with K562 was 1.6 µM (inactive); with MOLT-4, 0.421 µM (active); with NCI-H226, 3.44 µM (inactive); in the experiment on SW-620, 2.17 µM (inactive); in the experiment with HL-60, 0.735 µM (active); in the experiment with MDA-N, 1.9 µM (inactive). Further, the GI50 in the experiment with TK-10 is 2.71 µM (inactive); with RXF 393 it was 1.71 µM (inactive); with EKVX it was 2.47 µM (inactive); in the experiment on 786-0, 2.14 µM (inactive); in the experiment on SK-OV-3, 1.93 µM (inactive); with NCI-H23 it was 3.51 µM (inactive). The GI50 in the experiment with LOX IMVI is 1.06 µM (active); in the experiment with SK-MEL-5, 2.34 µM (inactive).

Take `COC(=O)NNC(=O)OC.COC(=O)Nc1ccccc1NC(=O)OC.COC(=O)Oc1nn(C(=O)OC)c(=O)c2ccccc12`: the GI50 in the experiment on COLO 205, in the experiment with CAKI-1, in the experiment on HCC 2998, with U-251, in the experiment with PC-3 and in the experiment on MDA-MB-435 was > 100 µM (inactive) each time. The GI50 with K562, in the experiment on MOLT-4, with NCI-H226, in the experiment on SW-620, with HL-60 and with MDA-N was > 100 µM (inactive) in each case. Besides, the GI50 in the experiment with TK-10, with RXF 393, with EKVX, with 786-0, in the experiment with SK-OV-3 and in the experiment with NCI-H23 was > 100 µM (inactive) throughout. Also, the GI50 in the experiment with LOX IMVI and with SK-MEL-5 was > 100 µM (inactive) in each case.

Consider `Cc1nn(C(=O)c2ccc(Cl)cc2)c2c1C(c1ccc([N+](=O)[O-])cc1)SC(=N)N2` (stereo not given), for which the GI50 in the experiment with COLO 205, with CAKI-1, in the experiment on HCC 2998, in the experiment with U-251, in the experiment on PC-3 and in the experiment on MDA-MB-435 was > 10 µM (inactive) throughout. Also, the GI50 in the experiment with K562, in the experiment with MOLT-4, in the experiment on NCI-H226, in the experiment with SW-620, with HL-60 and in the experiment on MDA-N was > 10 µM (inactive) in each case. Also, the GI50 in the experiment on TK-10, with RXF 393, in the experiment with EKVX, with 786-0, in the experiment on SK-OV-3 and with NCI-H23 was > 10 µM (inactive) throughout. Besides, the GI50 in the experiment on LOX IMVI and in the experiment on SK-MEL-5 was > 10 µM (inactive) throughout.

For the molecule `CC(C)[C@@H]1CC[C@@H](C)C[C@H]1OC(=O)/C=C1/C2C=CC(O2)C1C(=O)O[C@@H]1C[C@H](C)CC[C@H]1C(C)C` (stereo not given in full), the GI50 in the experiment with COLO 205 is > 100 µM (inactive); with CAKI-1, > 100 µM (inactive); with HCC 2998, 13.5 µM (inactive); with U-251, > 100 µM (inactive); in the experiment with PC-3 it was 56 µM (inactive); with MDA-MB-435, > 100 µM (inactive). For the same molecule, the GI50 with K562 was 51.4 µM (inactive); with MOLT-4, 43.8 µM (inactive); in the experiment on NCI-H226, 28.4 µM (inactive); in the experiment on SW-620, > 100 µM (inactive); in the experiment on HL-60 it was 30.5 µM (inactive); in the experiment with MDA-N, > 100 µM (inactive). For the same molecule, the GI50 in the experiment on TK-10, in the experiment on RXF 393, in the experiment on EKVX, in the experiment on 786-0, with SK-OV-3 and in the experiment on NCI-H23 was > 100 µM (inactive) throughout. The GI50 in the experiment with LOX IMVI and with SK-MEL-5 was > 100 µM (inactive) each time.

As for `N#CC(C#N)=C1CCCCc2ccc([N+](=O)[O-])cc21`, the GI50 in the experiment with COLO 205 was > 100 µM (inactive); in the experiment on CAKI-1, 95.7 µM (inactive); in the experiment with HCC 2998, > 100 µM (inactive); in the experiment on U-251 it was 76.2 µM (inactive); in the experiment with PC-3, 55.3 µM (inactive); in the experiment with MDA-MB-435 it was > 100 µM (inactive). Also, the GI50 in the experiment on K562 is 39.4 µM (inactive); in the experiment with MOLT-4 it was 41.8 µM (inactive); with NCI-H226, > 100 µM (inactive); in the experiment on SW-620, 41.9 µM (inactive); in the experiment with HL-60 it was 29 µM (inactive); in the experiment on MDA-N, 51.6 µM (inactive). In addition, the GI50 is > 100 µM (inactive) with TK-10; 40.6 µM (inactive) in the experiment with RXF 393; 46.6 µM (inactive) in the experiment on EKVX; 17.4 µM (inactive) with 786-0; > 100 µM (inactive) in the experiment with SK-OV-3; > 100 µM (inactive) with NCI-H23. For the same molecule, the values for the GI50 in the experiment with LOX IMVI and in the experiment on SK-MEL-5 were 76.2 µM (inactive) and > 100 µM (inactive), respectively.

As for `CCC1(OC(=O)CN2CCN(CCO)CC2)C(=O)OCc2c1cc1n(c2=O)Cc2cc3ccccc3nc2-1` (stereo not given), the GI50 in the experiment with COLO 205 was 2.04 µM (inactive); in the experiment on CAKI-1 it was 0.047 µM (active); with HCC 2998, 0.45 µM (active); with U-251, 0.143 µM (active); with PC-3, 0.405 µM (active); in the experiment with MDA-MB-435 it was 1.15 µM (inactive). For the same molecule, the GI50 in the experiment with K562 was 0.583 µM (active); in the experiment on MOLT-4, 0.034 µM (active); with NCI-H226, 0.329 µM (active); with SW-620, 0.0991 µM (active); in the experiment with HL-60, 0.286 µM (active); in the experiment with MDA-N it was 1.63 µM (inactive). In addition, the GI50 with TK-10 is 8.49 µM (inactive); with RXF 393, 0.593 µM (active); in the experiment on EKVX, 4.51 µM (inactive); in the experiment with 786-0, 0.13 µM (active); in the experiment with SK-OV-3 it was 1.17 µM (inactive); in the experiment on NCI-H23, 0.167 µM (active). The GI50 in the experiment on LOX IMVI is 0.18 µM (active); in the experiment with SK-MEL-5, 0.281 µM (active).

For `COC12c3ccccc3-c3ccccc3C1[C@@H](C(=O)O)[C@H]2C(=O)O` (stereo not given in full), the GI50 in the experiment on COLO 205, in the experiment with CAKI-1, in the experiment on HCC 2998, in the experiment with U-251, with PC-3 and in the experiment with MDA-MB-435 was > 10 µM (inactive) throughout. For the same molecule, the GI50 in the experiment on K562, in the experiment with MOLT-4, with NCI-H226, in the experiment on SW-620, with HL-60 and in the experiment on MDA-N was > 10 µM (inactive) in each case. Further, the GI50 in the experiment on TK-10, in the experiment on RXF 393, with EKVX, with 786-0, in the experiment on SK-OV-3 and in the experiment on NCI-H23 was > 10 µM (inactive) throughout. The GI50 with LOX IMVI and in the experiment with SK-MEL-5 was > 10 µM (inactive) each time.
